The results in this text go back to US20260097026A1, “INHIBITION OF AORTIC VALVE CALCIFICATION” (priority 2022, published 2026).

The assay deals with Human valve interstitial cells (VIC). As to the kind of experiment: Calcification inhibition in human valve interstitial cells (VIC); staining followed by spectroscopy. The assay is classed as cell-based. Particulars: VIC isolated from human aortic valves; calcification induced; test substance contacted during or after induced calcification; degree of calcification by staining and spectroscopy (FIG. 2, FIG. 3). As for the experimental part:
Human valve interstitial cells (VIC) are isolated from human aortic valves harvested during surgery for use in calcification inhibitor testing. After isolation, calcification is induced in the cells. The activity of potential inhibitors is assayed by contacting the VIC cells with the test substance during or after the induced calcification. The degree of calcification is measured by staining followed by spectroscopy. FIG. 1 provides photomicrographs of control cells (no induced calcification, left panel), cells where calcification is induced (middle panel), and calcification in the presence of an inhibitor (right panel).
In the case of `COCCCOc1ccnc(C[S+]([O-])c2nc3ccccc3[nH]2)c1C` (stereo not shown) [Rabeprazole, rabeprazole], the inhibition of calcification entry is “inhibition of calcification”.

On to `Cc1c(OCC(F)(F)F)ccnc1C[S+]([O-])c1nc2ccccc2[nH]1` (stereo not shown) [lansoprazole], for which the inhibition of calcification result is “inhibition of calcification”.

On to `COc1ccc2[nH]c([S+]([O-])Cc3ncc(C)c(OC)c3C)nc2c1` (stereo not shown) [omeprazole], for which the inhibition of calcification result was “inhibition of calcification”.

On to `COc1ccnc(C[S+]([O-])c2nc3cc(OC(F)F)ccc3[nH]2)c1OC` (stereo not shown) [pantoprazole], for which the inhibition of calcification entry was “inhibition of calcification”.
